{
  "source": "patent US20130045952A1",
  "about": "“ABA Receptor Agonists for Increased Plant Stress Resistance” (Van Andel Research Institute, priority 2011, published 2013)",
  "target": "T1, PYL2 A93F (Arabidopsis thaliana, UniProt O80992, A93F)",
  "T1 construct": "PYL2 (residues 14-188), and HAB1 (residues 172-511) were prepared as recombinant proteins in E. coli; made in house; host or cells: E. coli (stated for PYL2 in general)",
  "T1 sequence (O80992 14-188 A93F)": "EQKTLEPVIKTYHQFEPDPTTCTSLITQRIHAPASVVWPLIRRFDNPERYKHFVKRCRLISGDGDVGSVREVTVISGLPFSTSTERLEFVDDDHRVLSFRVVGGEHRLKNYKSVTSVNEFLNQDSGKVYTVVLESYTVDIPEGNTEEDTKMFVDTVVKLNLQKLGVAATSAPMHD",
  "assay": "PP2C binding and phosphatase assays of mutant PYL2 A93F",
  "format": "biochemical",
  "text": "The closest distance between the pyridine ring of pyrabactin and the LPA gating residues is 4.8 Å-7.0 Å when the LPA loop assumes the ABA-bound closed conformation, but is 11-13 Å when the LPA gate is in open conformation. In contrast, the distance of the naphthalene double ring of pyrabactin or the cyclohexene ring of ABA to the three side chains of the LPA gate in the PYL1 structure is 3.4-4.6 Å, a range for strong Van der Waals interactions, thus helping to keep the LPA gate in the closed conformation. […] To validate this hypothesis, we changed the alanine in the LPA loop to a larger residue. […] As expected from structural modeling, replacement of the gate residue A93 with the bulky phenylalanine ring also abrogated ABA to promote PYL2 activation.\nMutant proteins were expressed as H6GST-fusion proteins and purified by glutathione sepharose chromatography. Protein-protein interactions were determined by luminescence proximity AlphaScreen assay. Biotinylated PP2C proteins for the luminescence proximity assay were generated by in vivo biotinylation of avitag-PP2C fusion proteins. PP2C phosphatase activity was measured by phosphate release from a SnRK2.6 phosphoprotein.\nSite-directed mutagenesis was carried out using the QuickChange method (Stratagene). Mutations and all plasmid constructs were confirmed by sequencing.",
  "data": [
    {"substance": "(+)-Abscisic Acid", "values": [
      {"measurement": "Activation of mutant PYL2 A93F receptor", "value": "abrogated"}
    ]}
  ]
}
